Test results taken from US20230051589A1, “COMPOUNDS AND COMPOSITIONS FOR TREATING CONDITIONS ASSOCIATED WITH NLRP ACTIVITY” (Novartis AG, priority 2018, published 2023).

System: IL-1β production in PMA-differentiated THP-1 cells
Test: IL-1β production in PMA-differentiated THP-1 cells stimulated with gramicidin (hTHP-1 assay, 2% fetal bovine serum; Procedures 1-3)
Assay type: cell-based, human
Details: Homo sapiens, THP-1, hTHP-1 assay containing 2% fetal bovine serum, Table B2, class symbols; read-out: IC50
Protocol: The following protocol is suitable for testing the activity of the compounds disclosed herein.
Procedure 1: IL-1β Production in PMA-Differentiated THP-1 Cells Stimulated with Gramicidin.
THP-1 cells were purchased from the American Type Culture Collection and sub-cultured according to instructions from the supplier. Cells were cultured in complete RPMI 1640 (containing 10% heat inactivated FBS, penicillin (100 units/ml) and streptomycin (100 μg/ml)), and maintained in log phase prior to experimental setup. Prior to the experiment, compounds were dissolved in dimethyl sulfoxide (DMSO) to generate a 30 mM stock. The compound stock was first pre-diluted in DMSO to 3, 0.34, 0.042 and 0.0083 mM intermediate concentrations and subsequently spotted using Echo550 liquid handler into an empty 384-well assay plate to achieve desired final concentration (e.g. 100, 33, 11, 3.7, 1.2, 0.41, 0.14, 0.046, 0.015, 0.0051, 0.0017 μM). DMSO was backfilled in the plate to achieve a final DMSO assay concentration of 0.37%. The plate was then sealed and stored at room temperature until required.
THP-1 cells were treated with PMA (Phorbol 12-myristate 13-acetate) (20 ng/ml) for 16-18 hours. On the day of the experiment the media was removed and adherent cells were detached with trypsin for 5 minutes. Cells were then harvested, washed with complete RPMI 1640, spun down, and resuspended in RPMI 1640 (containing 2% heat inactivated FBS, penicillin (100 units/ml) and streptomycin (100 μg/ml). The cells were plated in the 384-well assay plate containing the spotted compounds at a density of 50,000 cells/well (final assay volume 50 μl). Cells were incubated with compounds for 1 hour and then stimulated with gramicidin (5 μM) (Enzo) for 2 hours. Plates were then centrifuged at 340 g for 5 min. Cell free supernatant (40 μL) was collected using a 96-channel PlateMaster (Gilson) and the production of IL-1β was evaluated by HTRF (cisbio). The plates were incubated for 18 h at 4° C. and read using the preset HTRF program (donor emission at 620 nm, acceptor emission at 668 nm) of the SpectraMax i3x spectrophotometer (Molecular Devices, software SoftMax 6). A vehicle only control and a dose titration of CRID3 (100-0.0017 μM) were run concurrently with each experiment.
Procedure 2: IL-1β Production in PMA-Differentiated THP-1 Cells Stimulated with Gramicidin.
THP-1 cells were purchased from the American Type Culture Collection and sub-cultured according to instructions from the supplier. Prior to experiments, cells were cultured in complete RPMI 1640 (containing 10% heat inactivated FBS, penicillin (100 units/ml) and streptomycin (100 μg/ml)), and maintained in log phase prior to experimental setup. Prior to the experiment THP-1 were treated with PMA (Phorbol 12-myristate 13-acetate) (20 ng/ml) for 16-18 hours. Compounds were dissolved in dimethyl sulfoxide (DMSO) to generate a 30 mM stock. On the day of the experiment the media was removed and adherent cells were detached with trypsin for 5 minutes. Cells were then harvested, washed with complete RPMI 1640, spun down, resuspended in RPMI 1640 (containing 2% heat inactivated FBS, penicillin (100 units/ml) and streptomycin (100 μg/ml) . The cells were plated in a 384-well plate at a density of 50,000 cells/well (final assay volume 50 μl). Compounds were first dissolved in assay medium to obtain a 5× top concentration of 500 μM. 10 step dilutions (1:3) were then undertaken in assay medium containing 1.67% DMSO. 5× compound solutions were added to the culture medium to achieve desired final concentration (e.g. 100, 33, 11, 3.7, 1.2, 0.41, 0.14, 0.046, 0.015, 0.0051, 0.0017 μM). Final DMSO concentration was at 0.37%. Cells were incubated with compounds for 1 hour and then stimulated with gramicidin (5 μM) (Enzo) for 2 hours. Plates were then centrifuged at 340 g for 5 min. Cell free supernatant (40 μL) was collected using a 96-channel PlateMaster (Gilson) and the production of IL-1β was evaluated by HTRF (cisbio). […]

Row | SMILES | IC50
1 | N[S@](=O)(=NC(=O)Nc1c2c(cc3c1CCC3)CCC2)c1ccc(C2CCNC2)cc1F (single isomer, unassigned) [Example 501, (S) or (R)-2-fluoro-N′-((1,2,3,5,6,7-hexahydro-s-indacen-4-yl)carbamoyl)-4-(pyrrolidin-3-yl)benzenesulfonimidamide] | 5000 to 30000 nM
2 | N[S@@](=O)(=NC(=O)Nc1c2c(cc3c1CCC3)CCC2)c1ccc(C2CCNC2)cc1F (single isomer, unassigned) [Example 502, (R) or (S)-2-fluoro-N′-((1,2,3,5,6,7-hexahydro-s-indacen-4-yl)carbamoyl)-4-(pyrrolidin-3-yl)benzenesulfonimidamide] | 200 to 1000 nM

Same assay, conditions: Table B1; hTHP-1 assay containing 2% fetal bovine serum, gramicidin stimulation, IL-1β readout; read-out: hTHP-1 IC50 (average)

Row | SMILES | IC50
3 | CN(C)Cc1ccc(S(N)(=O)=NC(=O)Nc2c3c(cc4c2CCC4)CCC3)nc1 (single isomer, unassigned) [Example 413, (R) or (S)-5-((dimethyl-amino)methyl)-N′-((1,2,3,5,6,7-hexahydro-s-indacen-4-yl)carbamoyl)-pyridine-2-sulfonimid-amide] | 200 to 1000 nM
4 | CC(C)(O)c1ncc(S(N)(=O)=NC(=O)Nc2cc3c(c4c2CCC4)CCC3)s1 (single isomer, unassigned) [Example 419, (R) or (S)-N′-((1,2,3,6,7,8-hexahydro-as-indacen-4-yl)carbamoyl)-2-(2-hydroxypropan-2-yl)thia-zole-5-sulfonimidamide] | 40 to 200 nM
5 | [2H]C1([2H])CCc2cc3c(c(NC(=O)N=S(N)(=O)c4cnc(C(C)(C)O)s4)c21)C([2H])([2H])CC3 (single isomer, unassigned) [Example 421, (R) or (S)-N′-((1,2,3,5,6,7-hexahydro-s-indacen-4-yl-3,3,5,5-d4)carbamoyl)-2-(2-hydroxypropan-2-yl)-thiazole-5-sulfonimidamide] | 8 to 40 nM
6 | [2H]C1([2H])CCc2c1cc1c(c2NC(=O)N=S(N)(=O)c2cnc(C(C)(C)O)s2)CCC1([2H])[2H] (single isomer, unassigned) [Example 423, (R) or (S)-N′-((1,2,3,5,6,7-hexahydro-s-indacen-4-yl-1,1,7,7-d4)carbamoyl)-2-(2-hydroxypropan-2-yl)-thiazole-5-sulfonimidamide] | 8 to 40 nM

Same assay, conditions: hTHP-1 assay containing 2% fetal bovine serum, Table B2, class symbols; read-out: IC50

Row | SMILES | IC50
7 | CC(C)(O)c1cc(F)c(S(N)(=O)=NC(=O)Nc2c3c(cc4c2CC4)CCC3)s1 (single isomer, unassigned) [Example 432] | 8 to 40 nM
8 | CC(C)(O)c1cc(F)c(S(N)(=O)=NC(=O)Nc2c3c(cc4c2CC4)CCC3)s1 (single isomer, unassigned) [Example 433] | 200 to 1000 nM
9 | Cc1c(C2CC2)cc2c(c1NC(=O)N=[S@@](N)(=O)c1cc(C(C)(C)O)cs1)CCC2 (single isomer, unassigned) [Example 498, (R) or (S)-N′-((6-cyclopropyl-5-methyl-2,3-dihydro-1H-inden-4-yl)carbamoyl)-4-(2-hydroxyprepan-2-yl)thiophene-2-sulfonimidamide] | 8 to 40 nM
10 | NS(=O)(=NC(=O)Nc1c2c(cc3c1CCC3)CCC2)c1cnn2c1OC[C@H](O)C2 (single isomer, unassigned) [Example 515, (R,6R) or (S,6R)-N′-((1,2,3,5,6,7-hexahydro-s-indacen-4-yl)carbamoyl)-6-hydroxy-6,7-dihydro-5H-pyrazolo[5,1-b] [1,3]oxazine-3-sulfonimidamide] | 40 to 200 nM
11 | NS(=O)(=NC(=O)Nc1c2c(cc3c1CCC3)CCC2)c1cnn2c1OC[C@H](O)C2 (single isomer, unassigned) [Example 516, (S,6R) or (R,6R)-N′-((1,2,3,5,6,7-hexahydro-s-indacen-4-yl)carbamoyl)-6-hydroxy-6,7-dihydro-5H-pyrazolo[5,1-b] [1,3]oxazine-3-sulfonimidamide] | 1000 to 5000 nM
12 | CN(C)Cc1cnc(S(N)(=O)=NC(=O)Nc2c3c(cc4c2CCC4)CCC3)c(F)c1 (single isomer, unassigned) [Example 517, (S) or (R)-5-((dimethylamino)methyl)-3-fluoro-N′-((1,2,3,5,6,7-hexahydro-s-indacen-4-yl)carbamoyl)pyridine-2-sulfonimidamide] | 5000 to 30000 nM
13 | CN(C)Cc1cnc(S(N)(=O)=NC(=O)Nc2c3c(cc4c2CCC4)CCC3)c(F)c1 (single isomer, unassigned) [Example 518, (R) or (S)-5-((dimethylamino)methyl)-3-fluoro-N′-((1,2,3,5,6,7-hexahydro-s-indacen-4-yl)carbamoyl) pyridine-2-sulfonimidamide] | 1000 to 5000 nM
14 | CNCC(C)(C)c1ccc(S(N)(=O)=NC(=O)Nc2c3c(cc4c2CCC4)CCC3)cc1 (single isomer, unassigned) [Example 519, (R) or (S)-N′-((1,2,3,5,6,7-hexahydro-s-indacen-4-yl)carbamoyl)-4-(2-methyl-1-(methylamino)propan-2-yl) benzenesulfonimidamide] | 1000 to 5000 nM
15 | CNCC(C)(C)c1ccc(S(N)(=O)=NC(=O)Nc2c3c(cc4c2CCC4)CCC3)cc1 (single isomer, unassigned) [Example 520, (S) or (R)-N′-((1,2,3,5,6,7-hexahydro-s-indacen-4-yl)carbamoyl)-4-(2-methyl-1-(methylamino)propan-2-yl) benzenesulfonimidamide] | 5000 to 30000 nM
16 | Cc1c(C2CC2)cc2c(c1NC(=O)N=[S@](N)(=O)c1cc(C(C)(C)O)cs1)CCC2 (single isomer, unassigned) [Example 521, (S) or (R)-N′-((6-cyclopropyl-5-methyl-2,3-dihydro-1H-inden-4-yl)carbamoyl)-4-(2-hydroxyprepan-2-yl)thiophene-2-sulfonimidamide] | 1000 to 5000 nM
17 | CC(C)(O)c1cncc(S(N)(=O)=NC(=O)Nc2c3c(c(C#N)c4c2CCC4)CCC3)c1 (single isomer, unassigned) [Example 522, (R) or (S)-N′-((8-cyano-1,2,3,5,6,7-hexahydro-s-indacen-4-yl)carbamoyl)-5-(2-hydroxypropan-2-yl)pyridine-3-sulfonimidamide] | 200 to 1000 nM
18 | CC(C)(O)c1cncc(S(N)(=O)=NC(=O)Nc2c3c(c(C#N)c4c2CCC4)CCC3)c1 (single isomer, unassigned) [Example 523, (S) or (R)-N′-((8-cyano-1,2,3,5,6,7-hexahydro-s-indacen-4-yl)carbamoyl)-5-(2-hydroxypropan-2-yl)pyridine-3-sulfonimidamide] | 5000 to 30000 nM
19 | NS(=O)(=NC(=O)Nc1c2c(cc3c1CC3)CCC2)c1ccc(CN2CCC2)cc1F (single isomer, unassigned) [Example 524, (R) or (S)-4-(azetidin-1-ylmethyl)-2-fluoro-N′-((2,4,5,6-tetrahydro-1H-cyclobuta[f]inden-3 - yl)carbamoyl) benzenesulfonimidamide] | 200 to 1000 nM
20 | NS(=O)(=NC(=O)Nc1c2c(cc3c1CC3)CCC2)c1ccc(CN2CCC2)cc1F (single isomer, unassigned) [Example 525, (S) or (R)-4-(azetidin-1-ylmethyl)-2-fluoro-N′-((2,4,5,6-tetrahydro-1H-cyclobuta[f]inden-3 - yl)carbamoyl) benzenesulfonimidamide] | 5000 to 30000 nM
21 | CC(C)c1cc2c(cc1NC(=O)N=S(N)(=O)c1cnc(C(C)(C)O)s1)CCC2 (single isomer, unassigned) [Example 526, (R) or (S)-2-(2-hydroxypropan-2-yl)-N′-((6-isopropyl-2,3-dihydro-1H-inden-5-yl)carbamoyl)thiazole-5-sulfonimidamide] | 200 to 1000 nM
